Drawing on patent US9725449B2, “Tricyclic compounds as anticancer agents” (BRISTOL-MYERS SQUIBB COMPANY, priority 2015, dated 2017), this text covers IC50 for nine molecules.

Bounds are passed on as bounds.

This assay concerns the target BRD4 (Homo sapiens, UniProt O60885). Description: Time resolved fluorescence resonance energy transfer (TR-FRET) binding assay, bromodomain BRD4. The conditions noted are these: one of the FRET assays described; read-out: FRET BRD4 IC50.

Turning to `[2H]C([2H])([2H])c1nnn(C)c1-c1cnc2c3c(OCC)ncc(S(C)(=O)=O)c3n(C(c3ncccc3F)C3CCC(F)(F)CC3)c2c1` (stereo not drawn) [Example 74, 8-[(4,4-Difluorocyclohexyl)(3-fluoropyridin-2-yl)methyl]-13-ethoxy-10-methanesulfonyl-5-[4-(^2H3)methyl-1-methyl-1H-1,2,3-triazol-5-yl]-3,8,12-triazatricyclo[7.4.0.0^2,^7]trideca-1(13),2(7),3,5,9,11-hexaene], the IC50 is < 10 nM.

Take `Cc1nnn(C)c1-c1cnc2c3ccc(Cl)nc3n([C@@H](c3ccccc3)C3CCOCC3)c2c1` [Example 15, 11-Chloro-5-(dimethyl-1H-1,2,3-triazol-5-yl)-8-[(R)-oxan-4-yl(phenyl)methyl]-3,8,10-triazatricyclo[7.4.0.0^2,^7]trideca-1(9),2(7),3,5,10,12-hexaene]: the half-maximal inhibitory concentration (IC50) was < 1500 nM.

Turning to `[2H]C([2H])([2H])c1nnn(C)c1-c1cnc2c3c(OCC4CC4)nccc3n([C@H](c3ccccc3)C3CCOCC3)c2c1` [Example 130, 13-(Cyclopropylmethoxy)-5-[4-(^2H3)methyl-1-methyl-1H-1,2,3-triazol-5-yl]-8-[(S)-oxan-4-yl(phenyl)methyl]-3,8,12-triazatricyclo[7.4.0.0^2,^7]trideca-1(13),2(7),3,5,9,11-hexaene], the IC50 was < 1 nM.

With `[2H]C([2H])([2H])c1nnn(C)c1-c1cnc2c3c(C(C)=O)cncc3n([C@H](c3ccccc3)C3CCOCC3)c2c1` [Example 297, 1-{5-[4-(^2H3)Methyl-1-methyl-1H-1,2,3-triazol-5-yl]-8-[(S)-oxan-4-yl(phenyl)methyl]-3,8,11-triazatricyclo[7.4.0.0^2,^7]trideca-1(9),2(7),3,5,10,12-hexaen-13-yl}ethan-1-one], the IC50 is < 10 nM.

As to `Cc1nnn(C)c1-c1cnc2c3ccc(N4CC5CC4CS5(=O)=O)nc3n([C@H](c3ccccc3)C3CCOCC3)c2c1` (stereo partly drawn) [Example 214, 5-[5-(Dimethyl-1H-1,2,3-triazol-5-yl)-8-[(S)-oxan-4-yl(phenyl)methyl]-3,8,10-triazatricyclo[7.4.0.0^2,^7]trideca-1(9),2(7),3,5,10,12-hexaen-11-yl]-2λ^6-thia-5-azabicyclo[2.2.1]heptane-2,2-dione], the IC50 was < 1 nM.

For `COc1ccc2c3ncc(-c4c(C)nnn4C)cc3n([C@H](c3ccccc3)C3CCOCC3)c2n1` [Example 12, 5-(Dimethyl-1H-1,2,3-triazol-5-yl)-11-methoxy-8-[(S)-oxan-4-yl(phenyl)methyl]-3,8,10-triazatricyclo[7.4.0.0^2,^7]trideca-1(13),2(7),3,5,9,11-hexaene], the IC50 is < 10 nM.

Regarding `Cc1nnn(C)c1-c1cnc2c3c(F)ncc(Cl)c3n([C@H](c3ccccc3)C3CCOCC3)c2c1` [Example 37, 10-Chloro-5-(dimethyl-1H-1,2,3-triazol-5-yl)-13-fluoro-8-[(S)-oxan-4-yl(phenyl)methyl]-3,8,12-triazatricyclo[7.4.0.0^2,^7]trideca-1(13),2(7),3,5,9,11-hexaene], the IC50 is < 10 nM.

In the case of `[2H]C([2H])([2H])c1nnn(C)c1-c1cnc2c3ccc(N4CCN(C)CC4)nc3n([C@H](c3ccccc3F)C3CCOCC3)c2c1` [Example 234, 8-[(S)-(2-Fluorophenyl)(oxan-4-yl)methyl]-5-[4-(^2H3)methyl-1-methyl-1H-1,2,3-triazol-5-yl]-11-(4-methylpiperazin-1-yl)-3,8,10-triazatricyclo[7.4.0.0^2,^7]trideca-1(13),2(7),3,5,9,11-hexaene], the IC50 is < 10 nM.

In the case of `CSc1nccc2c3ncc(-c4c(C)nnn4C)cc3n([C@H](c3ccccc3F)C3CCOCC3)c12` [Example 31, 5-(Dimethyl-1H-1,2,3-triazol-5-yl)-8-[(S)-(2-fluorophenyl)(oxan-4-yl)methyl]-10-(methylsulfanyl)-3,8,11-triazatricyclo[7.4.0.0^2,^7]trideca-1(13),2(7),3,5,9,11-hexaene], the IC50 is < 10 nM.
